Key:
[1] = target: T1, full length (FL) LXRβ (Homo sapiens, UniProt P55055, DUP175-175); assay: LXR Gal4 reporter transient transfection assay (FL-M2H Gal4β); assay type: cell-based; conditions: HEK293 cells, full length LXRβ; read-out: FL-M2H Gal4β (EC50 range)
T1 construct: the full length (FL) proteins of LXRα (amino acids 1-447); NP005684; NP009052; expressed in transfected cells; host or cells: HEK293
T1 sequence (P55055 with tags, fused parts or gaps DUP175-175): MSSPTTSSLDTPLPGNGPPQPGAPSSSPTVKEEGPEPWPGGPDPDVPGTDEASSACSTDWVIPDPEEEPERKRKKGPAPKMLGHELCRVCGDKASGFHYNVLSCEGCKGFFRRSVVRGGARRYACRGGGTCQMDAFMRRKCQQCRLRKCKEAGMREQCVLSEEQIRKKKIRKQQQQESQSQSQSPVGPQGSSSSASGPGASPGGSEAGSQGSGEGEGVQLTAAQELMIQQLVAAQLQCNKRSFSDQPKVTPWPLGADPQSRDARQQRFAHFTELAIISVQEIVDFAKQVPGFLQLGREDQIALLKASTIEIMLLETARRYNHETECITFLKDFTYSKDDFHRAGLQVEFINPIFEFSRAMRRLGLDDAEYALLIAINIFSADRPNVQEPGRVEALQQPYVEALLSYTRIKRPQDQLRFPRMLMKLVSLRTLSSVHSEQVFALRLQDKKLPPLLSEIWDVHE
Method: (§1) The tested compounds were usually dissolved, tested and stored as 20 mM stock solutions in DMSO. Since sulfonyl acetic acid derivatives tend to decarboxylate under these conditions, these stock solutions were prepared, tested and stored as 20 mM DMSO stock solutions containing 100 mM trifluoroacetic Acid (5 equivalents). Sulfonyl acetic acid derivatives are shelf stable as solid at rt for long time as reported by Griesbrecht et al. (Synlett 2010:374) or Faucher et al. (J. Med. Chem. 2004; 47:18).
(§2) LXR Gal4 Reporter Transient Transfection Assays
(§3) LXRα and LXRβ activity status was determined via detection of interaction with coactivator and corepressor proteins in mammalian two-hybrid experiments (M2H). For this, via transient transfection the full length (FL) proteins of LXRα (amino acids 1-447; NP005684; SEQ ID NO:1) or LXRβ-(amino acids 1-461; NP009052; SEQ ID NO:2) or the ligand-binding domains (LBD) of LXRα (amino acids 155-447 SEQ ID NO:3) or LXRβ (amino acids 156-461; SEQ ID NO:4) were expressed from pCMV-AD (Stratagene) as fusions to the transcriptional activation domain of NFkB. As cofactors, domains of either the steroid receptor coactivator 1 (SRC1; amino acids 552-887; SEQ ID NO:5) or of the corepressor NCoR (amino acids 1906-2312; NP006302; SEQ ID NO:6) were expressed as fusions to the DNA binding domain of the yeast transcription factor GAL4 (from pCMV-BD; Stratagene). Interaction was monitored via activation of a coexpressed Firefly Luciferase Reporter gene under control of a promoter containing repetitive GAL4 response elements (vector pFRLuc; Stratagene). Transfection efficiency was controlled via cotransfection of constitutively active pRL-CMV Renila reniformis luciferase reporter (Promega). HEK293 cells were grown in minimum essential medium (MEM) with 2 mM L-glutamine and Earle's balanced salt solution supplemented with 8.3% fetal bovine serum, 0.1 mM non-essential amino acids, 1 mM sodium pyruvate, at 37° C. in 5% CO2. 3.5×10^4 cells/well were plated in 96-well cell culture plates in growth medium supplemented with 8.3% fetal bovine serum for 16-20 h to ˜90% confluency. For transfection, medium was taken off and LXR and cofactor expressing plasmids as well as the reporter plasmids are added in 30 μL OPTIMEM/well including polyethylene-imine (PEI) as vehicle. Typical amounts of plasmids transfected/well: pCMV-AD-LXR (5 ng), pCMV-BD-cofactor (5 ng), pFR-Luc (100 ng), pRL-CMV (0.5 ng). Compound stocks were prepared in DMSO, prediluted in MEM to a total volume of 120 μL, and added 4 h after addition of the transfection mixture (final vehicle concentration not exceeding 0.2%). Cells were incubated for additional 16 h, lysed for 10 min in 1× Passive Lysis Buffer (Promega) and Firefly and Renilla luciferase activities were measured sequentially in the same cell extract using buffers containing D-luciferine and coelenterazine, respectively. Measurements of luminescence were done in a BMG-luminometer.

[2] = target: T2, LXRβ ligand-binding domain (Homo sapiens, UniProt P55055, DUP175-175); assay: TR-FRETβ activity assay (NCoA3 coactivator peptide recruitment); assay type: biochemical; conditions: TR-FRET, 1 μM 24(S)-25-epoxycholesterol prestimulation; read-out: FRETβ (EC50 range)
T2 construct: amino acids 156-461; NP009052; made in house; host or cells: E. coli
T2 sequence (P55055 with tags, fused parts or gaps DUP175-175 limits assumed): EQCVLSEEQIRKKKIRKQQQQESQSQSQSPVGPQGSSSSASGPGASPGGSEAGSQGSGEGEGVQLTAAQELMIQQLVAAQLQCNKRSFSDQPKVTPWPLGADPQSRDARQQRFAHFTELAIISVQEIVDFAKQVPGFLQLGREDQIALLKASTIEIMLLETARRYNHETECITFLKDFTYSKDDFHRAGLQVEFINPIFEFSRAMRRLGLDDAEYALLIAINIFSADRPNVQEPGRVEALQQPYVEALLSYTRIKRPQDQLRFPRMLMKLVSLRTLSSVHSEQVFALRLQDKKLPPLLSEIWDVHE
Method: as §1
Recombinant GST-LXRPβ ligand-binding domain (LBD; amino acids 156-461; NP009052; SEQ ID NO:4) was expressed in E. coli and purified via gluthatione-sepharose affinity chromatography. N-terminally biotinylated NCoA3 coactivator peptide (SEQ ID NO:7) was chemically synthesized (Eurogentec). Assays were done in 384 well format (final assay volume of 25 μL/well) in a Tris/HCl buffer (pH 6.8) containing KCl, bovine serum albumin, Triton-X-100 and 1 μM 24(S)-25-epoxycholesterol as LXR-prestimulating agonist. Assay buffer was provided and test articles (potential LXR inverse agonists) were titrated to yield final assay concentrations of 50 μM, 16.7 μM, 5.6 μM, 1.9 μM, 0.6 μM, 0.2 μM, 0.07 μM, 0.02 μM, 0.007 μM, 0.002 μM with one vehicle control. Finally, a detection mix was added containing anti GST-Tb cryptate (CisBio; 610SAXLB) and Streptavidin-XL665 (CisBio; 610SAXLB) as fluorescent donor and acceptor, respectively, as well as the coactivator peptide and LXRβ-LBD protein (SEQ ID NO:4). The reaction was mixed thoroughly, equilibrated for 1 h at 4° C. and vicinity of LXRβ and coactivator peptide was detected by measurement of fluorescence in a VictorX4 multiplate reader (PerkinElmer Life Science) using 340 nm as excitation and 615 and 665 nm as emission wavelengths. Assays were performed in triplicates.
Final Assay Concentrations of Components:
240 mM KCl, 1 μg/μL BSA, 0.002% Triton-X-100, […] anti GST-Tb cryptate, 2.5 ng/μL Streptavidin-XL665, coactivator peptide (400 nM), LXRβ protein (530 μg/mL, i.e. 76 nM).

[3] = target: T3, full length (FL) LXRα (Homo sapiens, UniProt Q13133); assay: LXR Gal4 reporter transient transfection assay (FL-M2H Gal4α); assay type: cell-based; conditions: HEK293 cells, full length LXRα; read-out: FL-M2H Gal4α (EC50 range)
T3 construct: the full length (FL) proteins of LXRα (amino acids 1-447); NP005684; expressed in transfected cells; host or cells: HEK293
T3 sequence (Q13133 1-447): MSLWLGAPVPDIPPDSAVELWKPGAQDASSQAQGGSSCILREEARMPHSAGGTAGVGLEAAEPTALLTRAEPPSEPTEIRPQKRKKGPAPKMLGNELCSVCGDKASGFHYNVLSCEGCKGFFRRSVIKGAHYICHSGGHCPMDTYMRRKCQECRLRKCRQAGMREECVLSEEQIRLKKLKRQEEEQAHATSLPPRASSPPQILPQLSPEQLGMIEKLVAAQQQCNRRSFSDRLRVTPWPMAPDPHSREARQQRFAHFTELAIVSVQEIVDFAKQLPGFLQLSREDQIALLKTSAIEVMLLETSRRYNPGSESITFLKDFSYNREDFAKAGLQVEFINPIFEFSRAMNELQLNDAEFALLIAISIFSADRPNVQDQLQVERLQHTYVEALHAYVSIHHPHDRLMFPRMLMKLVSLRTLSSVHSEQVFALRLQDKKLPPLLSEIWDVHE
Method: as §1, §2, §3

Structure (SMILES)	EC50 [1] [nM]	EC50 [2] [nM]	EC50 [3] [nM]
O=C(O)c1ccc(-c2cccc(-c3c(-c4ccccc4C4COC4)c4cc(F)ccc4n3S(=O)(=O)c3ccc(Cl)cc3)c2)c(Cl)c1 [3/56]	< 100	< 100	< 100
Cc1ccc(S(=O)(=O)n2c(-c3cccc(C4CC4C(=O)O)c3)c(-c3ccsc3C#N)c3ccncc32)cc1 (stereo not drawn) [4/1]	< 100	1000 to 10000	100 to 1000
N#Cc1ccncc1-c1c(-c2cccc(-c3cc(F)c(C(=O)O)cc3Cl)c2)n(S(=O)(=O)c2ccc(C(F)F)cc2)c2ccc(F)cc12 [11/10]	< 100	< 100	< 100
Cc1ccc(S(=O)(=O)n2c(-c3cccc(-c4ccc(C(=O)O)c(C)c4Cl)c3)c(-c3ccsc3C#N)c3cc(F)ccc32)cc1 [12/1]	< 100	100 to 1000	< 100
Cc1ccc(S(=O)(=O)n2c(-c3cccc(N4CC(C(=O)O)C4)c3)c(-c3ccsc3C#N)c3cc(C#N)ccc32)cc1 [3/45]	100 to 1000	1000 to 10000	100 to 1000
N#Cc1ccccc1-c1c(-c2cccc(-c3ccc(C(=O)O)c4c3OCO4)c2)n(S(=O)(=O)c2ccc(C(F)F)cc2)c2ccc(F)cc12 [11/28]	< 100	< 100	< 100
COC(=O)C(C)(C)N(C)C(=O)C1CN(c2cccc(-c3c(-c4ccsc4C#N)c4cc(F)ccc4n3S(=O)(=O)c3ccc(C)cc3)c2)C1 [32/2]	100 to 1000	100 to 1000	100 to 1000
Cc1ccc(S(=O)(=O)n2c(-c3cccc(N4CC(C(=O)O)C4)c3)c(-c3ccoc3C#N)c3cc(F)ccc32)cc1 [3/26]	< 100	1000 to 10000	100 to 1000
N#Cc1ccccc1-c1c(-c2cccc(-c3ccc(C(=O)O)c(O)c3Cl)c2)n(S(=O)(=O)c2ccc(C(F)F)cc2)c2ccc(F)cc12 [11/32]	< 100	< 100	< 100
CC(C)(O)c1ccc(S(=O)(=O)n2c(-c3cccc(-c4ccc(C(=O)O)cc4Cl)c3)c(-c3ccccc3C#N)c3cc(F)ccc32)cc1 [30/16]	100 to 1000	1000 to 10000	100 to 1000
N#Cc1cccc(C#N)c1-c1c(-c2cccc(C34CCC(C(=O)O)(CC3)CC4)c2)n(S(=O)(=O)c2ccc(C(F)F)cc2)c2ccc(F)cc12 [11/58]	< 100	< 100	< 100
CC(C)(C)OC(=O)CNC(=O)c1ccc(-c2cccc(-c3c(-c4c(C#N)cccc4C#N)c4cc(F)ccc4n3S(=O)(=O)c3ccc(C(F)F)cc3)c2)c(Cl)c1 [6/3]	< 100	< 100	< 100
N#Cc1cccc(C#N)c1-c1c(-c2cccc(C3CC3C(=O)O)c2)n(S(=O)(=O)c2ccc(C(F)F)cc2)c2ccc(F)cc12 (stereo not drawn) [3/68]	< 100	100 to 1000	< 100
Cn1cccc(-c2c(-c3cccc(-c4ccc(C(=O)O)cc4Cl)c3)n(S(=O)(=O)c3ccc(C(F)F)cc3)c3ccc(F)cc23)c1=O [11/47]	100 to 1000	100 to 1000	100 to 1000
Cn1ccc(-c2c(-c3cccc(-c4ccc(C(=O)O)cc4Cl)c3)n(S(=O)(=O)c3ccc(C(F)F)cc3)c3ccc(F)cc23)c1C#N [11/68]	< 100	< 100	< 100
CN1CC(F)(c2ccccc2-c2c(-c3cccc(-c4ccc(C(=O)O)cc4Cl)c3)n(S(=O)(=O)c3ccc(C(F)F)cc3)c3ccc(F)cc23)C1 [3/62]	< 100	100 to 1000	100 to 1000
CC(O)(C(=O)O)c1ccc(-c2cccc(-c3c(-c4c(C#N)cccc4C#N)c4cc(F)ccc4n3S(=O)(=O)c3ccc(C(F)F)cc3)c2)cc1 (stereo not drawn) [11/59]	< 100	< 100	< 100
N#Cc1cccc(C#N)c1-c1c(-c2cccc(-c3ccc(C(=O)O)c(F)c3F)c2)n(S(=O)(=O)c2ccc(C(F)F)cc2)c2ccc(F)cc12 [11/52]	< 100	< 100	< 100
